Reference: US20080152632A1, “Promoter-reporter cells for determining drug metabolism, drug interactions, and the effects of allotype variation” (Roslin Institute, priority 2005, published 2008)

System: AFP promoter in hepatocyte lineage cells
Assay: AFP-eGFP reporter signaling in hepatocyte lineage cells generated using Activin
Type: cell-based, human
Conditions: H1-LZ-hAFP-eGFP derived cells; factor in HCM medium with HGF and EGF (1 μM dexamethazone from Day 11; 25 ng/mL Oncostatin M from Day 20)
Experimental: The H1-LZ-hAFP-eGFP line of hES cells (Example 2) were expanded in mEF conditioned medium supplemented with 8 ng/mL bFGF on Matrigel™-coated plates. Once they reached 90-95% confluence, the cells were fed and cultured for one day (designated Day 1) with RPMI 1640 containing B27 supplement without vitamin A (GibcoBRL/Invitrogen # 12587-010), 1 mM sodium butyrate (Sigma Cat. no. B5887), and 100 ng/mL Activin A (R&D Systems #338-AC-025), and then for another two days in the same medium except having 0.5 mM sodium butyrate (Stage I). There was substantial cell death, with the remaining cells now having mesenchymal cell morphology, and some forming rosettes.
Starting on Day 4, the cells were fed daily with Knockout DMEM (GibcoBRL/Invitrogen #10829-018) containing 20% Knockout Serum Replacement (GibcoBRL/Invitrogen #10828-028), 2 mM L-glutamine, 1×nonessential amino acids, 0.1 mM β-mercaptoethanol, and 1% DMSO (Stage II). […] Starting on Day 20, the cells were fed on alternate days with HCM Bullet Kit, supplemented with 10 ng/mL human HGF, 10 ng/mL human EGF, and 25 ng/mL human Oncostatin M (Stage V).
In response to the medium components introduced on Day 11, about 60-70% of the cells began expressing eGFP, peaking by Day 19 or 20. Following the change of medium components on […], eGFP expression gradually disappeared.

| Molecule | AFP-eGFP reporter expression |
| --- | --- |
| C[C@@H]1C[C@H]2[C@@H]3CCC4=CC(=O)C=C[C@]4(C)[C@@]3(F)[C@@H](O)C[C@]2(C)[C@@]1(O)C(=O)CO [dexamethazone] | expressed |
| Oncostatin M: human Oncostatin M, late differentiation factor (protein, UniProt P13725 26-221, looked up) Oncostatin-M: AAIGSCSKEYRVLLGQLQKQTDLMQDTSRLLDPYIRIQGLDVPKLREHCRERPGAFPSEETLRGLGRRGFLQTLNATLGCVLHRLADLEQRLPKAQDLERSGLNIEDLEKLQMARPNILGLRNNIYCMAQLLDNSDTAEPTKAGRGASQPPTPTPASDAFQRKLEGCRFLHGYHRFMHSVGRVFSKWGESPNRSRR | decreased |
